# Assay results taken from paper PMC12028158, “Synthesis and In Vitro Evaluation of the Anticancer Effect of Novel Phosphonium Vindoline Derivatives” (International Journal of Molecular Sciences, 2025).
# Where two headings read alike, the source gives them in different places.
# What was measured:
# Format in all cases: cell-based
# CAKI-1 [1] = assay: NCI60 five-dose screen; settings: Homo sapiens
# CAKI-1 [2] = assay: NCI60 one-dose screen; settings: Homo sapiens
# UO-31 = assay: NCI60 one-dose screen; settings: Homo sapiens
# SK-MEL-28 = assay: NCI60 five-dose screen; settings: Homo sapiens
# MOLT-4 = assay: NCI60 five-dose screen; settings: Homo sapiens
# Colon Cancer panel = assay: NCI60 five-dose screen, panel mean; settings: Homo sapiens, read-out: Mean GI50
# NCI-H322M = assay: NCI60 one-dose screen; settings: Homo sapiens, read-out: Growth percent
# SK-MEL-5 [3] = assay: NCI60 five-dose screen; settings: Homo sapiens
# NCI-H522 [4] = assay: NCI60 one-dose screen; settings: Homo sapiens
# Leukemia panel = assay: NCI60 five-dose screen, panel mean; settings: Homo sapiens, read-out: Mean GI50
# CCRF-CEM = assay: NCI60 one-dose screen; settings: Homo sapiens, read-out: Growth percent
# MCF7 [5] = assay: NCI60 five-dose screen; settings: Homo sapiens
# OVCAR-4 = assay: NCI60 one-dose screen; settings: Homo sapiens
# LOX IMVI [6] = assay: NCI60 five-dose screen; settings: Homo sapiens
# OVCAR-5 = assay: NCI60 one-dose screen; settings: Homo sapiens, OVCAR-5, read-out: Growth percent
# KM12 = assay: NCI60 five-dose screen; settings: Homo sapiens
# HCT-116 = assay: NCI60 five-dose screen; settings: Homo sapiens
# MDA-MB-468 = assay: NCI60 five-dose screen; settings: Homo sapiens
# IGROV1 [7] = assay: NCI60 five-dose screen; settings: Homo sapiens, IGROV-1
# A549/ATCC = assay: NCI60 one-dose screen; settings: Homo sapiens
# 786-0 = assay: NCI60 five-dose screen; settings: Homo sapiens
# NCI-H522 [8] = assay: NCI60 five-dose screen; settings: Homo sapiens
# HCT-15 [9] = assay: NCI60 one-dose screen; settings: Homo sapiens
# LOX IMVI [10] = assay: NCI60 one-dose screen; settings: Homo sapiens, read-out: Growth percent
# TK-10 = assay: NCI60 one-dose screen; settings: Homo sapiens
# HCT-15 [11] = assay: NCI60 five-dose screen; settings: Homo sapiens
# [12] = test system: Non-small Cell Lung Cancer panel; assay: NCI60 five-dose screen, panel mean; settings: Homo sapiens, read-out: Mean GI50
# SNB-75 = assay: NCI60 one-dose screen; settings: Homo sapiens
# RXF 393 = assay: NCI60 five-dose screen; settings: Homo sapiens
# NCI-H23 = assay: NCI60 one-dose screen; settings: Homo sapiens
# MALME-3M = assay: NCI60 five-dose screen; settings: Homo sapiens
# MCF7 [13] = assay: NCI60 one-dose screen; settings: Homo sapiens
# RPMI-8226 = assay: NCI60 five-dose screen; settings: Homo sapiens
# NCI-H460 = assay: NCI60 one-dose screen; settings: Homo sapiens
# Melanoma panel = assay: NCI60 five-dose screen, panel mean; settings: Homo sapiens, read-out: Mean GI50
# UACC-257 [14] = assay: NCI60 one-dose screen; settings: Homo sapiens
# Breast Cancer panel = assay: NCI60 five-dose screen, panel mean; settings: Homo sapiens, read-out: Mean GI50
# M14 = assay: NCI60 one-dose screen; settings: Homo sapiens
# HCC-2998 = assay: NCI60 five-dose screen; settings: Homo sapiens
# Ovarian Cancer panel = assay: NCI60 five-dose screen, panel mean; settings: Homo sapiens, read-out: Mean GI50
# UACC-257 [15] = assay: NCI60 five-dose screen; settings: Homo sapiens
# IGROV1 [16] = assay: NCI60 one-dose screen; settings: Homo sapiens
# SNB-19 = assay: NCI60 one-dose screen; settings: Homo sapiens
# T-47D = assay: NCI60 one-dose screen; settings: Homo sapiens, T47D, read-out: Growth percent
# SK-MEL-5 [17] = assay: NCI60 one-dose screen; settings: Homo sapiens
# OVCAR-3 = assay: NCI60 one-dose screen; settings: Homo sapiens
# SF-539 = assay: NCI60 five-dose screen; settings: Homo sapiens
smiles,measurement,setting,value
CCC12C=CCN3CCC4(c5ccc(OC)cc5N(C)C4C(O)(C(=O)OC)C1OC(=O)CCC[P+](c1ccc(C)cc1)(c1ccc(C)cc1)c1ccc(C)cc1)C32 (stereo not drawn) [9a],GI50,CAKI-1 [1]; CAKI-1,1.87 µM
same,activity at 10 µM,"CAKI-1 [2]; CAKI-1, read-out: Growth percent",-95.3%
same,activity at 10 µM,"UO-31; UO-31, read-out: Growth percent",-97.4%
same,GI50,SK-MEL-28; SK-MEL-28,361 nM
same,GI50,MOLT-4; MOLT-4,294 nM
same,GI50,Colon Cancer panel,510 nM
same,activity at 10 µM,NCI-H322M,-98.4%
same,GI50,SK-MEL-5 [3]; SK-MEL-5,532 nM
same,activity at 10 µM,"NCI-H522 [4]; NCI-H522, read-out: Growth percent",-86.3%
same,GI50,Leukemia panel,260 nM
same,activity at 10 µM,CCRF-CEM,-67%
same,GI50,MCF7 [5]; MCF7,281 nM
same,activity at 10 µM,"OVCAR-4; OVCAR-4, read-out: Growth percent",-73.5%
same,GI50,LOX IMVI [6],333 nM
same,activity at 10 µM,OVCAR-5,-95.9%
same,GI50,KM12; KM12,376 nM
same,GI50,HCT-116; HCT-116,307 nM
same,GI50,MDA-MB-468; MDA-MB-468,165 nM
same,GI50,IGROV1 [7],383 nM
same,activity at 10 µM,"A549/ATCC; A549, read-out: Growth percent",-90.3%
same,GI50,786-0; 786-0,1060 nM
same,GI50,NCI-H522 [8]; NCI-H522,258 nM
same,activity at 10 µM,"HCT-15 [9]; HCT-15, read-out: Growth percent",-91%
same,activity at 10 µM,LOX IMVI [10],-89.3%
same,activity at 10 µM,"TK-10; TK-10, read-out: Growth percent",-88.5%
same,GI50,HCT-15 [11]; HCT-15,1.62 µM
same,GI50,[12],410 nM
same,activity at 10 µM,"SNB-75; SNB-75, read-out: Growth percent",-61.2%
same,GI50,RXF 393; RXF 393,279 nM
same,activity at 10 µM,"NCI-H23; NCI-H23, read-out: Growth percent",-90.7%
same,GI50,MALME-3M; Malme-3M,220 nM
same,activity at 10 µM,"MCF7 [13]; MCF7, read-out: Growth percent",-76.3%
same,GI50,RPMI-8226; RPMI-8226,186 nM
same,activity at 10 µM,"NCI-H460; NCI-H460, read-out: Growth percent",-85.2%
same,GI50,Melanoma panel,350 nM
same,activity at 10 µM,"UACC-257 [14]; UACC-257, read-out: Growth percent",-92.7%
same,GI50,Breast Cancer panel,270 nM
same,activity at 10 µM,"M14; M14, read-out: Growth percent",-85.3%
same,GI50,HCC-2998; HCC 2998,415 nM
same,GI50,Ovarian Cancer panel,1.57 µM
same,GI50,UACC-257 [15]; UACC-257,272 nM
same,activity at 10 µM,"IGROV1 [16]; IGROV-1, read-out: Growth percent",-89.5%
same,activity at 10 µM,"SNB-19; SNB-19, read-out: Growth percent",-97.3%
same,activity at 10 µM,T-47D,-78.4%
same,activity at 10 µM,"SK-MEL-5 [17]; SK-MEL-5, read-out: Growth percent",-99.4%
same,activity at 10 µM,"OVCAR-3; OVCAR-3, read-out: Growth percent",-61.9%
same,GI50,SF-539; SF-539,338 nM
"CC[C@]12C=CCN3CC[C@@]4(c5ccc(OC)cc5N(C)[C@H]4[C@@](O)(C(=O)OC)[C@@H]1OC(=O)CCC[P+](c1ccccc1)(c1ccccc1)c1ccccc1)[C@@H]32 [compound 3, reference compound]",GI50,"CAKI-1 [1]; CAKI-1, Renal Cancer, five-dose, read-out: GI50",5.57 µM
same,activity at 10 µM,"CAKI-1 [2]; CAKI-1, 10 μM, one-dose, read-out: Growth percent",52.2%
same,activity at 10 µM,"UO-31; UO-31, 10 μM, one-dose, read-out: Growth percent",80%
same,GI50,"SK-MEL-28; SK-MEL-28, Melanoma, five-dose, read-out: GI50",261 nM
same,GI50,"MOLT-4; MOLT-4, Leukemia, five-dose, read-out: GI50",614 nM
same,GI50,Colon Cancer panel; mean over Colon Cancer panel,1690 nM
same,activity at 10 µM,"NCI-H322M; 10 μM, one-dose",35.6%
same,GI50,"SK-MEL-5 [3]; SK-MEL-5, Melanoma, five-dose, read-out: GI50",766 nM
same,activity at 10 µM,"NCI-H522 [4]; NCI-H522, 10 μM, one-dose, read-out: Growth percent",-35.4%
same,GI50,Leukemia panel; mean over Leukemia panel,360 nM
same,activity at 10 µM,"CCRF-CEM; 10 μM, one-dose",11.2%
same,GI50,"MCF7 [5]; MCF7, MCF7, Breast Cancer, five-dose, read-out: GI50",306 nM
same,activity at 10 µM,"OVCAR-4; OVCAR-4, 10 μM, one-dose, read-out: Growth percent",-3.58%
same,GI50,"LOX IMVI [6]; Melanoma, five-dose, read-out: GI50",858 nM
same,GI50,"KM12; KM12, KM12, Colon Cancer, five-dose, read-out: GI50",297 nM
same,GI50,"HCT-116; HCT-116, Colon Cancer, five-dose, read-out: GI50",965 nM
same,GI50,"MDA-MB-468; MDA-MB-468, MDA-MB-468, Breast Cancer, five-dose, read-out: GI50",126 nM
same,GI50,"IGROV1 [7]; IGROV1, Ovarian Cancer, five-dose, read-out: GI50",237 nM
same,activity at 10 µM,"A549/ATCC; A549/ATCC, 10 μM, one-dose, read-out: Growth percent",13.4%
same,GI50,"786-0; 786-0, Renal Cancer, five-dose, read-out: GI50",2740 nM
same,GI50,"NCI-H522 [8]; NCI-H522, Non-small Cell Lung Cancer, five-dose, read-out: GI50",216 nM
same,activity at 10 µM,"HCT-15 [9]; HCT-15, 10 μM, one-dose, read-out: Growth percent",101%
same,activity at 10 µM,"LOX IMVI [10]; 10 μM, one-dose",8.81%
same,activity at 10 µM,"TK-10; TK-10, 10 μM, one-dose, read-out: Growth percent",22.3%
same,GI50,"HCT-15 [11]; HCT-15, Colon Cancer, five-dose, read-out: GI50",8.5 µM
same,GI50,[12]; mean over Non-small Cell Lung Cancer panel,1110 nM
same,activity at 10 µM,"SNB-75; SNB-75, 10 μM, one-dose, read-out: Growth percent",-4.39%
same,GI50,"RXF 393; RXF 393, Renal Cancer, five-dose, read-out: GI50",705 nM
same,activity at 10 µM,"NCI-H23; NCI-H23, 10 μM, one-dose, read-out: Growth percent",-8.66%
same,GI50,"MALME-3M; MALME-3M, Melanoma, five-dose, read-out: GI50",283 nM
same,activity at 10 µM,"MCF7 [13]; MCF7, 10 μM, one-dose, read-out: Growth percent",-3.34%
same,GI50,"RPMI-8226; RPMI-8226, Leukemia, five-dose, read-out: GI50",219 nM
same,activity at 10 µM,"NCI-H460; NCI-H460, 10 μM, one-dose, read-out: Growth percent",6.11%
same,GI50,Melanoma panel; mean over Melanoma panel,450 nM
same,activity at 10 µM,"UACC-257 [14]; UACC-257, 10 μM, one-dose, read-out: Growth percent",-27.3%
same,GI50,Breast Cancer panel; mean over Breast Cancer panel,450 nM
same,activity at 10 µM,"M14; M14, 10 μM, one-dose, read-out: Growth percent",17.7%
same,GI50,"HCC-2998; HCC-2998, Colon Cancer, five-dose, read-out: GI50",436 nM
same,GI50,Ovarian Cancer panel; mean over Ovarian Cancer panel,7.78 µM
same,GI50,"UACC-257 [15]; UACC-257, UACC-257, Melanoma, five-dose, read-out: GI50",240 nM
same,activity at 10 µM,"IGROV1 [16]; IGROV-1, IGROV1, 10 μM, one-dose, read-out: Growth percent",-0.06%
same,activity at 10 µM,"SNB-19; SNB-19, 10 μM, one-dose, read-out: Growth percent",11%
same,activity at 10 µM,"T-47D; T-47D, 10 μM, one-dose",1.08%
same,activity at 10 µM,"SK-MEL-5 [17]; SK-MEL-5, 10 μM, one-dose, read-out: Growth percent",-91.5%
same,activity at 10 µM,"OVCAR-3; OVCAR-3, 10 μM, one-dose, read-out: Growth percent",-2.49%
same,GI50,"SF-539; SF-539, CNS Cancer, five-dose, read-out: GI50",662 nM
